Experimental data taken from the supplement of paper PMC10307832.

Legend:
Experiment in all cases: relative viability (nuclei count vs DMSO), 5 days (fraction); higher = more cells survive
A-427 = test system: A-427
Outline: (§1)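 Relative viability was taken as the ratio of nuclei in treated wells to nuclei in vehicle wells. Lung cancer cell lines in 1536-well plates received compounds by pin tool one day after seeding, either one drug alone or a fixed anchor-drug dose plus five library-drug doses (not always all listed) in √10 steps. Nuclei were counted on 4× images after 5 days of treatment, and values are medians of duplicate plates.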

RERF-LC-KJ = test system: RERF-LC-KJ
Outline: as §1

NCI-H1975 = test system: NCI-H1975
Outline: as §1

NCI-H2228 = test system: NCI-H2228
Outline: as §1

NCI-H2126 = test system: NCI-H2126
Outline: as §1

NCI-H358 = test system: NCI-H358
Outline: as §1

NCI-H1915 = test system: NCI-H1915
Outline: as §1

SW 1573 = test system: SW 1573
Outline: as §1

NCI-H647 = test system: NCI-H647
Outline: as §1

NCI-H2347 = test system: NCI-H2347
Outline: as §1

HCC-78 = test system: HCC-78
Outline: as §1

LC-2-ad = test system: LC-2-ad
Outline: as §1

NCI-H522 = test system: NCI-H522
Outline: as §1

LXF-289 = test system: LXF-289
Outline: as §1

HCC-15 = test system: HCC-15
Outline: as §1

HOP-62 = test system: HOP-62
Outline: as §1

NCI-H2342 = test system: NCI-H2342
Outline: as §1

NCI-H1734 = test system: NCI-H1734
Outline: as §1

NCI-H1755 = test system: NCI-H1755
Outline: as §1

SK-LU-1 = test system: SK-LU-1
Outline: as §1

PC-3 [JPC-3] = test system: PC-3 [JPC-3]
Outline: as §1

NCI-H1792 = test system: NCI-H1792
Outline: as §1

Nc1ccn([C@@H]2O[C@H](CO)[C@@H](O)[C@@H]2O)c(=O)n1 [Cytarabine] + CC(=O)Nc1cccc(-n2c(=O)n(C3CC3)c(=O)c3c(Nc4ccc(I)cc4F)n(C)c(=O)c(C)c32)c1 [Trametinib] (partner 0.02 µM)
relative viability (A-427; first compound 0.005 µM): 0.714
relative viability (A-427; first compound 0.01581 µM): 0.616
relative viability (A-427; first compound 0.05 µM): 0.381
relative viability (A-427; first compound 0.1581 µM): 0.273
relative viability (A-427; first compound 0.5 µM): 0.225
relative viability (RERF-LC-KJ; first compound 0.005 µM): 0.797
relative viability (RERF-LC-KJ; first compound 0.01581 µM): 0.862
relative viability (RERF-LC-KJ; first compound 0.05 µM): 0.716
relative viability (RERF-LC-KJ; first compound 0.1581 µM): 0.498
relative viability (RERF-LC-KJ; first compound 0.5 µM): 0.402
relative viability (NCI-H1975; first compound 0.005 µM): 0.34
relative viability (NCI-H1975; first compound 0.01581 µM): 0.267
relative viability (NCI-H1975; first compound 0.05 µM): 0.631
relative viability (NCI-H1975; first compound 0.1581 µM): 0.25
relative viability (NCI-H1975; first compound 0.5 µM): 0.24
relative viability (NCI-H2228; first compound 0.005 µM): 0.288
relative viability (NCI-H2228; first compound 0.01581 µM): 0.171
relative viability (NCI-H2228; first compound 0.05 µM): 0.158
relative viability (NCI-H2228; first compound 0.1581 µM): 0.127
relative viability (NCI-H2228; first compound 0.5 µM): 0.116
relative viability (NCI-H2126; first compound 0.005 µM): 0.575
relative viability (NCI-H2126; first compound 0.01581 µM): 0.505
relative viability (NCI-H2126; first compound 0.05 µM): 0.448
relative viability (NCI-H2126; first compound 0.1581 µM): 0.349
relative viability (NCI-H2126; first compound 0.5 µM): 0.357
relative viability (NCI-H358; first compound 0.005 µM): 0.126
relative viability (NCI-H358; first compound 0.01581 µM): 0.108
relative viability (NCI-H358; first compound 0.05 µM): 0.103
relative viability (NCI-H358; first compound 0.1581 µM): 0.076
relative viability (NCI-H358; first compound 0.5 µM): 0.0812
relative viability (NCI-H1915; first compound 0.005 µM): 0.438
relative viability (NCI-H1915; first compound 0.01581 µM): 0.285
relative viability (NCI-H1915; first compound 0.05 µM): 0.251
relative viability (NCI-H1915; first compound 0.1581 µM): 0.211
relative viability (NCI-H1915; first compound 0.5 µM): 0.18
relative viability (SW 1573; first compound 0.005 µM): 0.509
relative viability (SW 1573; first compound 0.01581 µM): 0.482
relative viability (SW 1573; first compound 0.05 µM): 0.415
relative viability (SW 1573; first compound 0.1581 µM): 0.177
relative viability (SW 1573; first compound 0.5 µM): 0.0822
relative viability (NCI-H647; first compound 0.005 µM): 0.449
relative viability (NCI-H647; first compound 0.01581 µM): 0.317
relative viability (NCI-H647; first compound 0.05 µM): 0.22
relative viability (NCI-H647; first compound 0.1581 µM): 0.0976
relative viability (NCI-H647; first compound 0.5 µM): 0.0793
relative viability (NCI-H2347; first compound 0.005 µM): 0.277
relative viability (NCI-H2347; first compound 0.01581 µM): 0.309
relative viability (NCI-H2347; first compound 0.05 µM): 0.282
relative viability (NCI-H2347; first compound 0.1581 µM): 0.236
relative viability (NCI-H2347; first compound 0.5 µM): 0.257
relative viability (HCC-78; first compound 0.005 µM): 1.06
relative viability (HCC-78; first compound 0.01581 µM): 0.688
relative viability (HCC-78; first compound 0.05 µM): 0.575
relative viability (HCC-78; first compound 0.1581 µM): 0.478
relative viability (HCC-78; first compound 0.5 µM): 0.37
relative viability (LC-2-ad; first compound 0.005 µM): 0.896
relative viability (LC-2-ad; first compound 0.01581 µM): 0.908
relative viability (LC-2-ad; first compound 0.05 µM): 0.893
relative viability (LC-2-ad; first compound 0.1581 µM): 0.708
relative viability (LC-2-ad; first compound 0.5 µM): 0.47
relative viability (NCI-H522; first compound 0.005 µM): 0.823
relative viability (NCI-H522; first compound 0.01581 µM): 0.75
relative viability (NCI-H522; first compound 0.05 µM): 0.65
relative viability (NCI-H522; first compound 0.1581 µM): 0.589
relative viability (NCI-H522; first compound 0.5 µM): 0.515
relative viability (LXF-289; first compound 0.005 µM): 0.632
relative viability (LXF-289; first compound 0.01581 µM): 0.573
relative viability (LXF-289; first compound 0.05 µM): 0.62
relative viability (LXF-289; first compound 0.1581 µM): 0.428
relative viability (LXF-289; first compound 0.5 µM): 0.287
relative viability (HCC-15; first compound 0.005 µM): 0.396
relative viability (HCC-15; first compound 0.01581 µM): 0.281
relative viability (HCC-15; first compound 0.05 µM): 0.381
relative viability (HCC-15; first compound 0.1581 µM): 0.362
relative viability (HCC-15; first compound 0.5 µM): 0.357
relative viability (HOP-62; first compound 0.005 µM): 0.352
relative viability (HOP-62; first compound 0.01581 µM): 0.327
relative viability (HOP-62; first compound 0.05 µM): 0.261
relative viability (HOP-62; first compound 0.1581 µM): 0.23
relative viability (HOP-62; first compound 0.5 µM): 0.144
relative viability (NCI-H2342; first compound 0.005 µM): 0.779
relative viability (NCI-H2342; first compound 0.01581 µM): 0.825
relative viability (NCI-H2342; first compound 0.05 µM): 0.803
relative viability (NCI-H2342; first compound 0.1581 µM): 0.579
relative viability (NCI-H2342; first compound 0.5 µM): 0.646
relative viability (NCI-H1734; first compound 0.005 µM): 0.361
relative viability (NCI-H1734; first compound 0.01581 µM): 0.264
relative viability (NCI-H1734; first compound 0.05 µM): 0.203
relative viability (NCI-H1734; first compound 0.1581 µM): 0.132
relative viability (NCI-H1734; first compound 0.5 µM): 0.119
relative viability (NCI-H1755; first compound 0.005 µM): 0.827
relative viability (NCI-H1755; first compound 0.01581 µM): 0.76
relative viability (NCI-H1755; first compound 0.05 µM): 0.681
relative viability (NCI-H1755; first compound 0.1581 µM): 0.512
relative viability (NCI-H1755; first compound 0.5 µM): 0.407
relative viability (SK-LU-1; first compound 0.005 µM): 0.416
relative viability (SK-LU-1; first compound 0.01581 µM): 0.454
relative viability (SK-LU-1; first compound 0.05 µM): 0.423
relative viability (SK-LU-1; first compound 0.1581 µM): 0.356
relative viability (SK-LU-1; first compound 0.5 µM): 0.303
relative viability (PC-3 [JPC-3]; first compound 0.005 µM): 0.705
relative viability (PC-3 [JPC-3]; first compound 0.01581 µM): 0.73
relative viability (PC-3 [JPC-3]; first compound 0.05 µM): 0.589
relative viability (PC-3 [JPC-3]; first compound 0.1581 µM): 0.423
relative viability (PC-3 [JPC-3]; first compound 0.5 µM): 0.498
relative viability (NCI-H1792; first compound 0.01581 µM): 0.438
relative viability (NCI-H1792; first compound 0.05 µM): 0.356
relative viability (NCI-H1792; first compound 0.1581 µM): 0.213
relative viability (NCI-H1792; first compound 0.5 µM): 0.118
